Laboratory results taken from patent US10774084B2, “Adenine derivatives and their use as UV-photoprotective agents” (UNIVERZITA PALACKEHO V OLOMOUCI, priority 2015, dated 2020).

Tested on: human dermal fibroblast (HDF)
Experiment: Comparative gene expression analysis (mRNA sequencing)
Type: cell-based
Details: 5 μM, 24 h
Experimental: Comparative gene expression analysis in human dermal fibroblast (HDF) was performed to gain insight into role of compound 1 in the photoprotection against UV-induced damage. Three independent HDF lines form three patients were treated with 5 μM 1 for 24 h or mock-treated with DMSO. Alternatively, the above three biological samples (without 1) were irradiated with UV light (5 J/cm2). 1.5-3.0×10^6 cells from each treatment or control was used for isolation of total RNA using trizol. cDNA sequencing libraries were prepared with the Illumina TruSeq Stranded mRNA LT Sample Prep Kit (Illumina, San Diego, Calif.) according to standard Illumina's protocols and sequenced on HiSeq 2500 apparatus (50 bp single-end reads).
To reveal the molecular mechanism of the action of 1, we compared data from mock (DMSO)-treated HDF or UV-treated HDF with those obtained after 24 h treatment with 1. For data analysis, we performed ab initio method where sequencing reads were mapped to the reference genome. […] These included calcium-activated potassium channel KCNN4, calcium sensor DYSF or calcium-dependent phospholipid-binding protein CPNE7. […] Thus, 1 seems to protect cells against oxidative damage caused primarily by UV-light or other stress conditions.

[1] = 1-treated vs UV-treated group, P<0.05

c1nc(NCC2CCCO2)c2ncn(C3CCCO3)c2n1 (centres unmarked) [Compound 1, 6-(tetrahydrofuran-2-ylmethylamino)-9-(tetrahydrofuran-2-yl)purine]
number of differentially regulated genes [1]: 1306 genes
number of downregulated genes [1]: 441 genes
number of upregulated genes [1]: 865 genes
significantly regulated genes, control group vs samples treated with 1 (in words) (vs DMSO mock): did not show any significantly regulated genes
logFC ABCG1 (vs UV-treated group): −2.63
logFC AC002456.2 (vs UV-treated group): 1.58
logFC AC003986.6 (vs UV-treated group): −1.65
logFC ADAMTS9-AS2 (vs UV-treated group): −1.63
logFC ADGRG1 (vs UV-treated group): 1.52
logFC ANGPTL4 (vs UV-treated group): 1.73
logFC ANKRD33 (vs UV-treated group): 2.69
logFC APOL6 (vs UV-treated group): −1.51
logFC ARHGAP22 (vs UV-treated group): 1.66
logFC B4GALNT1 (vs UV-treated group): 1.55
logFC BHLHE22 (vs UV-treated group): −1.90
logFC BRINP2 (vs UV-treated group): −1.77
logFC BTC (vs UV-treated group): −1.84
logFC CCDC107 (vs UV-treated group): 1.50
logFC CCL8 (vs UV-treated group): −2.80
logFC CCL26 (vs UV-treated group): 1.75
logFC CD163 (vs UV-treated group): 1.67
logFC CFB (vs UV-treated group): −1.96
logFC CHRNA9 (vs UV-treated group): 2.21
logFC CITED4 (vs UV-treated group): 1.63
logFC CLNS1AP1 (vs UV-treated group): −1.80
logFC CPNE7 (vs UV-treated group): 1.61
logFC CTD-2587H24.5 (vs UV-treated group): 1.54
logFC CXCL9 (vs UV-treated group): −1.79
logFC CYP51A1 (vs UV-treated group): 1.65
logFC DHRS3 (vs UV-treated group): −1.60
logFC DYSF (vs UV-treated group): 1.73
logFC EBF2 (vs UV-treated group): 1.62
logFC FAM20A (vs UV-treated group): −1.86
logFC FAM81A (vs UV-treated group): 1.71
logFC FGD3 (vs UV-treated group): −1.93
logFC FOLR3 (vs UV-treated group): 1.68
logFC GBP2 (vs UV-treated group): −1.61
logFC GPR37L1 (vs UV-treated group): −1.66
logFC HAUS1P2 (vs UV-treated group): −1.54
logFC HCK (vs UV-treated group): −1.66
logFC HS3ST2 (vs UV-treated group): 2.50
logFC IFIT2 (vs UV-treated group): −1.77
logFC ITGA10 (vs UV-treated group): 1.77
logFC JAK3 (vs UV-treated group): −1.68
logFC KCNN4 (vs UV-treated group): 1.85
logFC KCNT2 (vs UV-treated group): −2.21
logFC KIF1A (vs UV-treated group): 3.05
logFC LINC00702 (vs UV-treated group): 1.60
logFC LINC00704 (vs UV-treated group): 1.69
logFC LINC01204 (vs UV-treated group): 1.64
logFC MET (vs UV-treated group): 1.63
logFC MOB3B (vs UV-treated group): −1.70
logFC MYEOV (vs UV-treated group): 1.98
logFC NRROS (vs UV-treated group): 1.74
logFC NUDT8 (vs UV-treated group): 1.56
logFC PPP2R2C (vs UV-treated group): 1.95
logFC PSAT1P3 (vs UV-treated group): −2.19
logFC RARRES3 (vs UV-treated group): −2.09
logFC RNF150 (vs UV-treated group): −1.80
logFC RORB (vs UV-treated group): −1.57
logFC RP1-181J22.1 (vs UV-treated group): −2.53
logFC RP11-21C4.1 (vs UV-treated group): −1.95
logFC RP11-54A9.1 (vs UV-treated group): 1.63
logFC RP11-184E9.1 (vs UV-treated group): 1.78
logFC RP11-363H12.1 (vs UV-treated group): −1.58
logFC RP11-367F23.2 (vs UV-treated group): 1.70
logFC RP11-379B8.1 (vs UV-treated group): −1.72
logFC RP11-383F6.1 (vs UV-treated group): −1.50
logFC RP11-400K9.4 (vs UV-treated group): −1.51
logFC RP11-541M12.6 (vs UV-treated group): 1.70
logFC RP11-1100L3.8 (vs UV-treated group): −1.70
logFC RPL34P31 (vs UV-treated group): −1.89
logFC SCG2 (vs UV-treated group): 2.00
logFC SERPINB9 (vs UV-treated group): −1.59
logFC SLC20A1 (vs UV-treated group): 1.56
logFC STX1A (vs UV-treated group): 1.55
logFC TGM2 (vs UV-treated group): 1.58
logFC TLR2 (vs UV-treated group): −1.63
logFC TM4SF1 (vs UV-treated group): 2.08
logFC TMEM154 (vs UV-treated group): 1.57
logFC TMEM178A (vs UV-treated group): −1.52
logFC TMEM233 (vs UV-treated group): 2.12
logFC TNFRSF9 (vs UV-treated group): −1.68
logFC TNFSF10 (vs UV-treated group): −2.14
logFC TNFSF13B (vs UV-treated group): −1.61
logFC TP63 (vs UV-treated group): −1.61
